Reference: US20230312587A1, “PTERIDINONE COMPOUNDS AND USES THEREOF” (Vertex Pharmaceutical Incorporated, priority 2018, published 2023)

Experiments:
HepG2 XBP1(u)-Luc cells = test: HepG2 XBP1 reporter assay; type: cell-based; details: 6 h
Summary of the method: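 Reporter cells are HepG2 stably carrying unspliced XBP1 fused to firefly luciferase, which becomes in-frame after IRE1alpha-mediated splicing. SteadyGlo luminescence was normalized to DMSO-treated cells for IC50 calculation.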

[1] = target: HEK293 membranes over-expressing WFS-1 (Homo sapiens (Human), UniProt O76024); test: Radioligand displacement assay (tritiated Compound 136 probe); type: binding; details: displacement of tritiated Compound 136
Summary of the method: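 WFS-1-overexpressing HEK293 membranes were preincubated 10 min with compound, then tritiated probe was added for 90 min at room temperature. Bound probe was collected by filtration on PEI-pretreated GF/B filters, washed and scintillation-counted. IC50 came from a 3-parameter fit of bound probe vs compound concentration.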

[2] = system: Colo205-TCF/LEF-Luciferase (Luc) tumor; test: In vivo inhibition of TCF/LEF reporter activity in Colo-205 tumors; design: concentration or dose not given beside the values; details: TCF/LEF luciferase reporter in Colo-205 tumors, nu/nu mice, oral gavage
Summary of the method: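 Female nu/nu mice carried subcutaneous Colo205-TCF/LEF-luciferase tumours (200–500 mm^3), n=4 per group. Compound was given by oral gavage in 1:3:5:1 EtOH:DMSO:PEG-400:H2O at 10 ml/kg, with vehicle as control. Luciferase activity in tumour lysates (Steady-Glo) was normalised to BCA protein.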

HEK293 membranes over-expressing WFS-1, sequence (O76024 whole entry): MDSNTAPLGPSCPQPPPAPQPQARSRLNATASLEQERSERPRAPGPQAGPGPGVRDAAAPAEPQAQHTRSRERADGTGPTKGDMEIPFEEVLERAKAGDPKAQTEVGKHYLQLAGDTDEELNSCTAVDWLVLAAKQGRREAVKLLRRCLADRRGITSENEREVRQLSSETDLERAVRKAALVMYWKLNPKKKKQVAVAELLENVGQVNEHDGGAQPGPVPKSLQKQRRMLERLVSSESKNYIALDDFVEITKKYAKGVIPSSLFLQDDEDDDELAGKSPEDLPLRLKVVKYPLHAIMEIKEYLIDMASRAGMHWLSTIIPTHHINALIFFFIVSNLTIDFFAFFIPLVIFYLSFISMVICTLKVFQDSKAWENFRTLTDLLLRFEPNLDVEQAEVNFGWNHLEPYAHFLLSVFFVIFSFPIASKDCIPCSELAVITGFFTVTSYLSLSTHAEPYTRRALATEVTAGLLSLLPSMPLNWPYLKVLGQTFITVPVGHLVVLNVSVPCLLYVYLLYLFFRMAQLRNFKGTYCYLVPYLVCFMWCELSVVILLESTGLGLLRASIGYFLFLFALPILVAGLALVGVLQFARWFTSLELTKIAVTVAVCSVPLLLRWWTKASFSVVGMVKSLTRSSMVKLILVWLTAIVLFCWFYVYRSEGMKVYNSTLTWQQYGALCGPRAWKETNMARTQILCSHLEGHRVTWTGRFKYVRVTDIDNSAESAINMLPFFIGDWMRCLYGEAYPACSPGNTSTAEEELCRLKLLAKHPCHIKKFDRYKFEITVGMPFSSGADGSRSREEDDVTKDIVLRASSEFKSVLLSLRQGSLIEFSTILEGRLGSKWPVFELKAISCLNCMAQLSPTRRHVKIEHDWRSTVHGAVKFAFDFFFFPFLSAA

| IC50 (HepG2 XBP1(u)-Luc cells; Homo sapiens) [nM] | IC50 [1] [nM] | Molecule | Percent Remaining Activity at 8 hrs after Dosing [2] [%] | IC50 (HepG2 XBP1(u)-Luc cells) [nM] |
| --- | --- | --- | --- | --- |
| < 600 | < 60 | Cc1nc(N[C@H]2C[C@H](Oc3ccc(C(F)(F)F)nc3)C2)nc2c1NC(=O)[C@H](C)N2C [Compound 324, (7S)-4,7,8-trimethyl-2-((trans-3-((6-(trifluoromethyl)pyridin-3-yl)oxy)cyclobutyl)amino)-7,8-dihydropteridin-6(5H)-one] | 16 | – |
| < 600 | 60 to 600 | Cc1cc(F)ncc1Cn1cc(CNc2nc(C)c3c(n2)N(C)[C@@H](C(C)C)C(=O)N3)cn1 [Compound 423, (7S)-2-(((1-((6-fluoro-4-methylpyridin-3-yl)methyl)-1H-pyrazol-4-yl)methyl)amino)-7-isopropyl-4,8-dimethyl-7,8-dihydropteridin-6(5H)-one] | 70 | – |
| – | < 60 | Cc1nc(N[C@H]2CC[C@H](Oc3ccc(C(F)(F)F)nc3)C2)nc2c1NC(=O)[C@H](C)N2C (single isomer, unassigned) [Compound 377] | 33 | 600 to 2000 |
| < 600 | < 60 | Cc1nc(NCc2cnn([C@@H]3C[C@@H]3c3ccc(F)cc3)c2)nc2c1NC(=O)[C@H](C)N2C [Compound 154, (7S)-2-(((1-((1R,2R)-2-(4-fluorophenyl)cyclopropyl)-1H-pyrazol-4-yl)methyl)amino)-4,7,8-trimethyl-7,8-dihydropteridin-6(5H)-one] | 24 | – |
| < 600 | < 60 | Cc1nc(NCc2cnn(Cc3cc(F)c(F)c(F)c3)c2)nc2c1NC(=O)[C@H](C)N2C [Compound 122, (7S)-4,7,8-trimethyl-2-(((1-(3,4,5-trifluorobenzyl)-1H-pyrazol-4-yl)methyl)amino)-7,8-dihydropteridin-6(5H)-one] | 16 | – |
| ≥ 10000 | 600 to 3000 | Cc1nc(NCc2cnn(CCC3CCOCC3)c2)nc2c1NC(=O)[C@H](C)N2C [Compound 115, (7S)-4,7,8-trimethyl-2-(((1-(2-(tetrahydro-2H-pyran-4-yl)ethyl)-1H-pyrazol-4-yl)methyl)amino)-7,8-dihydropteridin-6(5H)-one] | – | – |
| 2000 to 10000 | 60 to 600 | Cc1nc(N[C@H]2C[C@@H](Sc3ccc(F)cc3)C2)nc2c1N(C)C(=O)[C@H](C)N2C [Compound 305, (7S)-2-((cis-3-((4-fluorophenyl)thio)cyclobutyl)amino)-4,5,7,8-tetramethyl-7,8-dihydropteridin-6(5H)-one] | – | – |
| 2000 to 10000 | ≥ 3000 | Cc1nc(NCc2cnn(CC(C)(O)c3ccc(F)cc3)c2)nc2c1NC(=O)[C@H](C)N2C (stereo partly drawn) [Compound 128, (7S)-2-(((1-(2-(4-fluorophenyl)-2-hydroxypropyl)-1H-pyrazol-4-yl)methyl)amino)-4,7,8-trimethyl-7,8-dihydropteridin-6(5H)-one] | – | – |
| ≥ 10000 | 60 to 600 | Cc1nc(NCc2cnn(C3CCN(C(=O)c4ccc(F)cc4)CC3)c2)nc2c1NC(=O)[C@H](C)N2C [Compound 125, (7S)-2-(((1-(1-(4-Fluorobenzoyl)piperidin-4-yl)-1H-pyrazol-4-yl)methyl)amino)-4,7,8-trimethyl-7,8-dihydropteridin-6(5H)-one] | – | – |
| 2000 to 10000 | 60 to 600 | Cc1cnc(C(F)(F)F)nc1-n1cc(CNc2ncc3c(n2)N(C)[C@@H](C)C(=O)N3)cn1 [Compound 164, (7S)-7,8-dimethyl-2-(((1-(5-methyl-2-(trifluoromethyl)pyrimidin-4-yl)-1H-pyrazol-4-yl)methyl)amino)-7,8-dihydropteridin-6(5H)-one] | – | – |
| 2000 to 10000 | 60 to 600 | CCOc1ccc(CCn2cc(CNc3ncc4c(n3)N(C)[C@@H](C)C(=O)N4)cn2)cc1 [Compound 121, (7S)-2-(((1-(4-ethoxyphenethyl)-1H-pyrazol-4-yl)methyl)amino)-7,8-dimethyl-7,8-dihydropteridin-6(5H)-one] | – | – |
| 600 to 2000 | 60 to 600 | Cc1nc(NCc2cnn(CCc3ccc(F)cc3)c2)nc2c1NC(=O)[C@H](C)N2C [Compound 6, (7S)-2-(((1-(4-fluorophenethyl)-1H-pyrazol-4-yl)methyl)amino)-4,7,8-trimethyl-7,8-dihydropteridin-6(5H)-one] | – | – |
| < 600 | < 60 | Cc1nc(NCc2cnn(Cc3cnc(Cl)c(F)c3)c2)nc2c1NC(=O)[C@H](C(C)C)N2C [Compound 424, (7S)-2-(((1-((6-chloro-5-fluoropyridin-3-yl)methyl)-1H-pyrazol-4-yl)methyl)amino)-7-isopropyl-4,8-dimethyl-7,8-dihydropteridin-6(5H)-one] | – | – |
| ≥ 10000 | ≥ 3000 | CC(=O)N(Cc1cnn(Cc2ccc(C(F)(F)F)nc2)c1)c1nc(C)c2c(n1)N(C)[C@@H](C)C(=O)N2 [Compound 405, (7S)-N-((1-((6-(trifluoromethyl)pyridin-3-yl)methyl)-1H-pyrazol-4-yl)methyl)-N-(4,7,8-trimethyl-6-oxo-5,6,7,8-tetrahydropteridin-2-yl)acetamide] | – | – |
| 600 to 2000 | < 60 | COc1cc(F)ccc1Cn1cc(CNc2nc(C)c3c(n2)N(C)[C@@H](C)C(=O)N3)cn1 [Compound 83, (7S)-2-(((1-(4-fluoro-2-methoxybenzyl)-1H-pyrazol-4-yl)methyl)amino)-4,7,8-trimethyl-7,8-dihydropteridin-6(5H)-one] | – | – |
| 2000 to 10000 | 60 to 600 | Cc1nc(N[C@H]2C[C@H](Oc3ccc(F)nc3)C2)nc2c1NC(=O)[C@H](C)N2C [Compound 357, (7S)-2-((trans-3-((6-fluoropyridin-3-yl)oxy)cyclobutyl)amino)-4,7,8-trimethyl-7,8-dihydropteridin-6(5H)-one] | – | – |
| ≥ 10000 | 600 to 3000 | Cc1nc(NCc2cnn(Cc3ccc(F)cc3)c2)nc2c1NC(=O)C1(CC1)N2 [Compound 222, 2′-(((1-(4-fluorobenzyl)-1H-pyrazol-4-yl)methyl)amino)-4′-methyl-5′,8′-dihydro-6′H-spiro[cyclopropane-1,7′-pteridin]-6′-one] | – | – |
| ≥ 10000 | ≥ 3000 | Cc1nc(N(C)Cc2cnn(Cc3ccc(C(F)(F)F)nc3)c2)nc2c1NC(=O)[C@H](C)N2C [Compound 403, (7S)-4,7,8-trimethyl-2-(methyl((1-((6-(trifluoromethyl)pyridin-3-yl)methyl)-1H-pyrazol-4-yl)methyl)amino)-7,8-dihydropteridin-6(5H)-one] | – | – |
| ≥ 10000 | ≥ 3000 | Cc1nc(NCc2cn(Cc3ccc(C(F)(F)F)nc3)cn2)nc2c1NC(=O)[C@H](C)N2C [Compound 428, (S)-4,7,8-trimethyl-2-(((1-((6-(trifluoromethyl)pyridin-3-yl)methyl)-1H-imidazol-4-yl)methyl)amino)-7,8-dihydropteridin-6(5H)-one] | – | – |
| < 600 | 60 to 600 | Cc1nc(N[C@@H]2CC[C@@H](n3ccc(C(F)(F)F)n3)C2)nc2c1NC(=O)[C@H](C)N2C (single isomer, unassigned) [Compound 311] | – | – |
| 2000 to 10000 | 600 to 3000 | Cc1ccc(Cn2cc(CNc3nc(C)c4c(n3)N(C)[C@@H](C)C(=O)N4)cn2)cn1 [Compound 173, (7S)-4,7,8-trimethyl-2-(((1-((6-methylpyridin-3-yl)methyl)-1H-pyrazol-4-yl)methyl)amino)-7,8-dihydropteridin-6(5H)-one] | – | – |
| < 600 | < 60 | Cc1nc(NCc2cnn(Cc3ccc(C(F)(F)F)nc3Cl)c2)nc2c1NC(=O)[C@H](C)N2C [Compound 418, (7S)-2-(((1-((2-chloro-6-(trifluoromethyl)pyridin-3-yl)methyl)-1H-pyrazol-4-yl)methyl)amino)-4,7,8-trimethyl-7,8-dihydropteridin-6(5H)-one] | – | – |
| < 600 | 600 to 3000 | Cc1nc(N[C@H]2C[C@@H](COc3ccc(C(F)(F)F)cn3)C2)nc2c1NC(=O)[C@H](C)N2C [Compound 356, (7S)-4,7,8-trimethyl-2-((cis-3-(((5-(trifluoromethyl)pyridin-2-yl)oxy)methyl)cyclobutyl)amino)-7,8-dihydropteridin-6(5H)-one] | – | – |
| 2000 to 10000 | 600 to 3000 | Cc1nc(NCc2cnn(CCc3ccc(F)cc3)c2)nc2c1N(C)C(=O)[C@H](C)N2C [Compound 8, (7S)-2-(((1-(4-fluorophenethyl)-1H-pyrazol-4-yl)methyl)amino)-4,5,7,8-tetramethyl-7,8-dihydropteridin-6(5H)-one] | – | – |
| < 600 | < 60 | Cc1nc(NCc2cn(Cc3ccc(C(F)(F)F)nc3)nc2Br)nc2c1NC(=O)[C@H](C)N2C [Compound 412, (S)-2-(((3-bromo-1-((6-(trifluoromethyl)pyridin-3-yl)methyl)-1H-pyrazol-4-yl)methyl)amino)-4,7,8-trimethyl-7,8-dihydropteridin-6(5H)-one] | – | – |

| Molecule | IC50 (HepG2 XBP1(u)-Luc cells; Homo sapiens) [nM] | IC50 [1] [nM] | Percent Remaining Activity at 8 hrs after Dosing [2] [%] | IC50 (HepG2 XBP1(u)-Luc cells) [nM] |
| --- | --- | --- | --- | --- |
| Cc1nc(NCc2cnn(Cc3ccc(C(F)(F)F)nc3)c2)nc2c1NC(=O)[C@H](C)N2C [Compound 136, (7S)-4,7,8-trimethyl-2-(((1-((6-(trifluoromethyl)pyridin-3-yl)methyl)-111-pyrazol-4-yl)methyl)amino)-7,8-dihydropteridin-6(5H)-one] | – | 60 to 600 | 24 | 600 to 2000 |
| (7S)-2-(((1-((6-fluoro-2-isopropylpyridin-3-yl)methyl)-1H-pyrazol-4-yl)methyl)(methyl)amino)-7-isopropyl-4,8-dimethyl-7,8-dihydropteridin-6(5H)-one [Compound 430] | – | < 60 | – | < 600 |
